From ChEMBL document CHEMBL5107983, “Adipocyte fatty acid binding protein 4 (FABP4) inhibitors. An update from 2017 to early 2022” (Eur J Med Chem, 2022)

Tests used:
[1] = target: T1, Fatty acid-binding protein, adipocyte (Homo sapiens, UniProt P15090); test: Inhibition of FABP4 (unknown origin) incubated for 10 mins by fluorescence based analysis
[2] = target: T1, Fatty acid-binding protein, adipocyte; test: Inhibition of human FABP4
[3] = target: T1, Fatty acid-binding protein, adipocyte; test: Displacement of 1,8-ANS from human recombinant FABP4 incubated for 4 mins by fluorescence based analysis

T1 sequence (P15090 whole entry): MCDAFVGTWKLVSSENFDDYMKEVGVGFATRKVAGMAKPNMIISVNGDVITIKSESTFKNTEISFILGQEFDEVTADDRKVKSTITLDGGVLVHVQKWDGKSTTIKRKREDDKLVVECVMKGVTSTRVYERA

| Structure (SMILES) | IC50 [1] | also measured |
| --- | --- | --- |
| COc1cc(Br)c(C(C)(C)C)cc1S(=O)(=O)Nc1ccccc1C(=O)O |  | IC50 [2]: 1.5 µM |
| CC(C)OC(=O)C(C(=O)C(F)(F)F)c1cc(NS(=O)(=O)c2ccccc2)ccc1O (configuration not stated) |  | IC50 [3]: 3.5 µM |
| C=CCn1c(=O)[nH]c(=O)c2[nH]c(-c3ccc(OCCNC(=O)c4ccccc4)cc3)cc21 | 2.23 µM |  |
| O=C(O)c1cccc(NS(=O)(=O)c2ccc(Br)c3ccccc23)c1 |  | IC50 [2]: 5.5 µM |

Second part, led by results:

| IC50 [1] | Structure (SMILES) | also measured |
| --- | --- | --- |
| 5.59 µM | O=C(O)Cc1cn(-c2ccccc2-c2nc(-c3ccccc3)c(-c3ccccc3)s2)nn1 |  |
| 3.7 µM | O=C(O)Cc1cn(-c2ccccc2-c2nc(-c3ccc4ccccc4c3)c(-c3ccccc3)s2)nn1 |  |
| 4.31 µM | O=C(O)Cc1cn(-c2ccccc2-c2nc(-c3ccc(Cl)cc3)c(-c3ccccc3)s2)nn1 |  |
